Source: patent publication US12678454B2, “Bicarbonate as a potentiator for antimicrobial agents” (priority 2017, dated 2026)
Like-named read-outs stand apart in the source and are kept apart here. Marks after values point to notes of the source that are not given here.

What was measured:
[1] = tested on: S. aureus (Strain Newman); experiment: MIC determination (CLSI protocol) in MHB; format: cell-based, Staphylococcus aureus; conditions: for MIC, S. aureus, MHB−: MHB without sodium bicarbonate
Experimental: (§1) In the following experiments, bacterial cells were cultured in 96-well microtiter plates in cation-adjusted Mueller-Hinton Broth (MHB) for 18 h at 37° C. The main strains used in this study were E. coli (K-12 BW25113) (placed in stationary incubator) and S. aureus (Strain Newman) (incubated at 250 r.p.m). Knockout strains (ΔtolcC and ΔychM) were used from the Keio knockout collection (Baba, T. et al. Construction of Escherichia coli K-12 in-frame, single-gene knockout mutants: the Keio collection. Mol Syst Biol 2, 2006 0008, doi:10.1038/msb4100050 (2006)). For minimum concentration for inhibition (MIC) determination and checkerboard analyses, Clinical & Laboratory Standards Institute (CLSI) protocol was used. […] DiSC3 loading of S. aureus cells was performed as previously described (Farha, M. A., Verschoor, C. P., Bowdish, D. & Brown, E. D. Collapsing the proton motive force to identify synergistic combinations against Staphylococcus aureus. Chemistry & biology 20, 1168-1178, doi:10.1016/j.chembiol.2013.07.006 (2013)). CCCP concentration of 20 μM was used. pH adjustments were made by addition of HCl or NaOH. INT assay and ATP bioluminescence assays were performed as previously described (Farha, M. A., Verschoor, C. P., Bowdish, D. & Brown, E. D. Collapsing the proton motive force to identify synergistic combinations against Staphylococcus aureus. Chemistry & biology 20, 1168-1178, doi:10.1016/j.chembiol.2013.07.006 (2013)). For chemical-genomic studies, the Keio library was grown overnight in cation-adjusted MHB broth, in 384-well plates. From these, treatment plates (25 mM sodium bicarbonate, or a sterile water control) were inoculated and grown for 15 hours at 37° C., in a stationary incubator. Data was normalized according to Mangat et al (Mangat, C. S., Bharat, A., Gehrke, S. S. & Brown, E. D. Rank ordering plate data facilitates data visualization and normalization in high-throughput screening. J Biomol Screen 19, 1314-1320, doi:10.1177/1087057114534298 (2014)), with gene products and GO terms mined from EcoCyc. The GFP promoter library (Keseler, I. M. et al. EcoCyc: fusing model organism databases with systems biology. Nucleic Acids Res 41, D605-612, doi:10.1093/nar/gks1027 (2013)) was grown for 18 hours at ambient temperature with the same inoculation strategy as with the Keio collection. The analysis pipeline of Zaslaver et al (Zaslaver, A. et al. A comprehensive library of fluorescent transcriptional reporters for Escherichia coli. Nat Methods 3, 623-628, doi:10.1038/nmeth895 (2006)) was used to generate maps of promoter activity, from which lists of promoters with increased or decreased activity were compiled.

E. coli (K-12 BW25113) = format: cell-based, Escherichia coli; design: MIC, E. coli, MHB− / MIC, E. coli, MHB+: unit not given here
Experimental: as §1

[2] = fold enhancement of MIC with 25 mM sodium bicarbonate, negative = suppression

| Molecule | Fold, S. aureus [1] | MIC, S. aureus, MHB− [1] | Fold, E. coli (E. coli (K-12 BW25113)) | MIC, E. coli, MHB+ (E. coli (K-12 BW25113)) | Fold, S. aureus [1, 2] | Fold, E. coli (E. coli (K-12 BW25113); [2]) | MIC in MHB ([1]; S. aureus (strain Newman), MHB) | MIC in MHB + 25 mM bicarbonate ([1]; S. aureus (strain Newman), MHB + 25 mM sodium bicarbonate) | effect of physiological sodium bicarbonate on inhibitory activity (E. coli (K-12 BW25113); E. coli, 25 mM sodium bicarbonate) | MIC, E. coli, MHB− (E. coli (K-12 BW25113); MHB without sodium bicarbonate) |
| --- | --- | --- | --- | --- | --- | --- | --- | --- | --- | --- |
| CO[C@@H]1[C@@H](OC(N)=O)[C@@H](O)[C@H](Oc2ccc3c(O)c(NC(=O)c4ccc(O)c(CC=C(C)C)c4)c(=O)oc3c2C)OC1(C)C [Novobiocin] | −16 fold | 0.031 µg/mL | −8 fold | >256 |  |  |  |  |  |  |
| CCn1cc(C(=O)O)c(=O)c2cc(F)c(N3CCNCC3)cc21 [Norfloxacin] | −2 fold | 0.5 µg/mL | 2 fold | 0.0625 |  |  |  |  |  |  |
| CCN1CCN(C(=O)N[C@@H](C(=O)N[C@@H]2C(=O)N3C(C(=O)O)=C(CSc4nnnn4C)CS[C@H]23)c2ccc(O)cc2)C(=O)C1=O [Cefoperazone] | −16 fold | 0.25 µg/mL | 1 fold | 0.125 |  |  |  |  |  |  |
| NC[C@@H]1O[C@H](O[C@H]2[C@@H](O)[C@H](O[C@@H]3[C@@H](O)[C@H](N)C[C@H](N)[C@H]3O[C@H]3O[C@H](CO)[C@@H](O)[C@H](O)[C@H]3N)O[C@@H]2CO)[C@H](N)[C@@H](O)[C@@H]1O [Paromomycin] | 1 fold | 2 µg/mL | 2 fold | 1 |  |  |  |  |  |  |
| CCN1CCN(C(=O)N[C@@H](C(=O)N[C@@H]2C(=O)N3[C@@H]2SC(C)(C)[C@@H]3C(=O)O)c2ccccc2)C(=O)C1=O [Piperacillin] | −4 fold | 0.25 µg/mL | 2 fold | 1 |  |  |  |  |  |  |
| CC(=O)NC[C@H]1CN(c2ccc(N3CCOCC3)c(F)c2)C(=O)O1 [Linezolid] | 1 fold | 0.625 µg/mL | 1 fold | 256 |  |  |  |  |  |  |
| C[C@H]1COc2c(N3CCN(C)CC3)c(F)cc3c(=O)c(C(=O)O)cn1c23 [Levofloxacin] | −2 fold | 0.5 µg/mL | 1 fold | 0.0313 |  |  |  |  |  |  |
| O=C(N[C@H](CO)[C@H](O)c1ccc([N+](=O)[O-])cc1)C(Cl)Cl [Chloramphenicol] | 1 fold | 8 µg/mL | 1 fold | 8 |  |  |  |  |  |  |
| COc1c(N2C[C@@H]3CCCN[C@@H]3C2)c(F)cc2c(=O)c(C(=O)O)cn(C3CC3)c12 [Moxifloxacin] |  | 0.125 µg/mL |  | 0.0156 |  |  |  |  |  |  |
| CO/N=C(\C(=O)N[C@@H]1C(=O)N2C(C(=O)O)=C(CSc3nc(=O)c(=O)[nH]n3C)CS[C@H]12)c1csc(N)n1 [Ceftriaxone] | −4 fold | 4 µg/mL | 1 fold | 0.625 |  |  |  |  |  |  |
| CN[C@@H]1[C@H](O)[C@H](NC)[C@H]2O[C@@]3(O)C(=O)C[C@@H](C)O[C@H]3O[C@@H]2[C@H]1O [Spectinomycin] | 8 fold | 64 µg/mL | 4 fold | 4 |  |  |  |  |  |  |
| CN[C@H](CC(C)C)C(=O)N[C@H]1C(=O)N[C@@H](CC(N)=O)C(=O)N[C@H]2C(=O)N[C@H]3C(=O)N[C@H](C(=O)N[C@H](C(=O)O)c4cc(O)cc(O)c4-c4cc3ccc4O)[C@H](O)c3ccc(c(Cl)c3)Oc3cc2cc(c3O[C@@H]2O[C@H](CO)[C@@H](O)[C@H](O)[C@H]2O[C@H]2C[C@](C)(N)[C@H](O)[C@H](C)O2)Oc2ccc(cc2Cl)[C@H]1O [Vancomycin] |  | 1 µg/mL |  |  | −4 fold | 1 fold |  |  |  |  |
| CO[C@H]1/C=C/O[C@@]2(C)Oc3c(C)c(O)c4c(O)c(c(/C=N/N5CCN(C)CC5)c(O)c4c3C2=O)NC(=O)/C(C)=C\C=C\[C@H](C)[C@H](O)[C@@H](C)[C@@H](O)[C@@H](C)[C@H](OC(C)=O)[C@@H]1C [Rifampicin] | −4 fold | 0.0078 µg/mL | −2 fold | 64 |  |  |  |  |  |  |
| NC[C@H]1O[C@H](O[C@H]2[C@H](O)[C@@H](O[C@H]3O[C@H](CO)[C@@H](O)[C@H](N)[C@H]3O)[C@H](N)C[C@@H]2N)[C@H](O)[C@@H](O)[C@@H]1O [Kanamycin] | 2 fold | 8 µg/mL | 4 fold | 1 |  |  |  |  |  |  |
| Lysozyme |  |  |  |  |  |  | >256 ** μg/mL | >256 ** μg/mL | enhanced the inhibitory activity |  |
| Neomycin | 4 fold |  | 4 fold | 0.25 |  |  |  |  |  | 1 |
| CC1(C)S[C@@H]2[C@H](NC(=O)[C@H](N)c3ccc(O)cc3)C(=O)N2[C@H]1C(=O)O [Amoxicillin] | −4 fold | 0.25 µg/mL | −2 fold | 16 |  |  |  |  |  |  |
| Cc1onc(-c2ccccc2)c1C(=O)N[C@@H]1C(=O)N2[C@@H]1SC(C)(C)[C@@H]2C(=O)O [Oxacillin] | −16 fold | 0.0625 µg/mL | −2 fold | >256 |  |  |  |  |  |  |
| CCn1cc(C(=O)O)c(=O)c2cc(F)c(N3CCNCC3)nc21 [Enoxacin] | −2 fold | 1 µg/mL | 2 fold | 0.125 |  |  |  |  |  |  |
| CC[C@H]1OC(=O)[C@H](C)[C@@H](O[C@H]2C[C@@](C)(OC)[C@@H](O)[C@H](C)O2)[C@H](C)[C@@H](O[C@@H]2O[C@H](C)C[C@H](N(C)C)[C@H]2O)[C@](C)(O)C[C@@H](C)[C@@H]2N[C@@H](COCCOC)O[C@H]([C@H]2C)[C@]1(C)O [Dirithromycin] | 8 fold | 4 µg/mL | 32 fold | 4 |  |  |  |  |  |  |
| CN[C@@H]1[C@@H](O[C@H]2O[C@H](CO)[C@@H](N)[C@H](O)[C@H]2O)OC2C[C@@H](N)[C@@H](O[C@H]3[C@H](O)[C@@H](O)[C@H](N)C[C@@H]3N)OC2[C@@H]1O (some centres unmarked) [Apramycin] | 0.5 fold | 16 µg/mL | 4 fold | 8 |  |  |  |  |  |  |
| CC[C@H]1OC(=O)[C@H](C)[C@@H](O[C@H]2C[C@@](C)(OC)[C@@H](O)[C@H](C)O2)[C@H](C)[C@@H](O[C@@H]2O[C@H](C)C[C@H](N(C)C)[C@H]2O)[C@](C)(O)C[C@@H](C)C(=O)[C@H](C)[C@@H](O)[C@]1(C)O [Erythromycin] |  | 32 µg/mL |  | 32 |  |  |  |  |  |  |
| N[C@@H]1CCCCN(c2c(F)cc3c(=O)c(C(=O)O)cn(C4CC4)c3c2Cl)C1 [Besifloxacin] | −2 fold | 0.125 µg/mL | 8 fold | 0.0313 |  |  |  |  |  |  |
